Laboratory results published in the NIST ThermoML archive (doi:10.1016/j.jct.2012.09.012).

Assay: molar heat capacity at constant pressure; xn = mol fraction of the nth substance listed
Details: 101 kPa, Liquid, Small sample (50 mg) DSC

CC1=CC[C@H]2C[C@@H]1C2(C)C [(S)-2-pinene] + C=C1CCC2CC1C2(C)C
molar heat capacity at constant pressure [J/K/mol]
Details | x1 = 0.1002 | x1 = 0.2041 | x1 = 0.2997 | x1 = 0.3922 | x1 = 0.5012 | x1 = 0.5907 | x1 = 0.7026 | x1 = 0.7987 | x1 = 0.9002 | x1 = 1
368.17 K | 279.28 | 279.28 | 279.28 | 279.28 | 280.64 | 280.64 | 276.56 | 276.56 | 277.92 | 279.28
373.21 K | 283.37 | 282 | 282 | 282 | 282 | 282 | 279.28 | 280.64 | 279.28 | 282
378.2 K | 284.73 | 283.37 | 284.73 | 284.73 | 284.73 | 284.73 | 280.64 | 282 | 282 | 284.73
383.17 K | 287.45 | 286.09 | 287.45 | 287.45 | 286.09 | 287.45 | 284.73 | 283.37 | 284.73 | 287.45
388.2 K | 291.54 | 288.82 | 290.18 | 291.54 | 290.18 | 290.18 | 288.82 | 286.09 | 287.45 | 291.54
393.17 K | 292.9 | 291.54 | 292.9 | 294.27 | 292.9 | 291.54 | 291.54 | 288.82 | 288.82 | 292.9
398.2 K | 294.27 | 295.63 | 294.27 | 296.99 | 295.63 | 294.27 | 294.27 | 292.9 | 292.9 | 294.27
403.19 K | 296.99 | 298.35 | 296.99 | 299.71 | 298.35 | 296.99 | 295.63 | 295.63 | 294.27 | 296.99
408.16 K | 299.71 | 301.08 | 299.71 | 303.8 | 302.44 | 299.71 | 299.71 | 298.35 | 296.99 | 299.71
413.19 K | 301.08 | 302.44 | 301.08 | 305.16 | 305.16 | 301.08 | 301.08 | 299.71 | 299.71 | 301.08
418.19 K | 303.8 | 305.16 | 303.8 | 306.53 | 306.53 | 302.44 | 303.8 | 303.8 | 302.44 | 303.8
